According to ChEMBL document CHEMBL1201862, “PubChem BioAssay data set” (2004):
Calls of active or inactive are those of the source.

Columns and labels:
[1] = target: Glucose-6-phosphate 1-dehydrogenase (Homo sapiens, UniProt P11413); experiment: human G6PD enzyme inhibitors, dose response, selectivity assay for P. falciparum G6PD inhibitor project, biochemical, fluorescence (AID 504792); format: functional
[2] = target: T1, Heat shock factor protein 1 (Mus musculus, UniProt P38532); experiment: inhibition of MG132-induced HSE-luciferase signal, confirmation, cell-based, NIH3T3, luminescence, dose retest (AID 2382); format: functional;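 further: NIH3T3 fibroblasts with HSF1-driven luciferase reporter stressed by proteasome inhibitor MG132; luminescence from HSF1-driven luciferase expression after 8 hours of MG132 stress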
T1 sequence (P38532 whole entry): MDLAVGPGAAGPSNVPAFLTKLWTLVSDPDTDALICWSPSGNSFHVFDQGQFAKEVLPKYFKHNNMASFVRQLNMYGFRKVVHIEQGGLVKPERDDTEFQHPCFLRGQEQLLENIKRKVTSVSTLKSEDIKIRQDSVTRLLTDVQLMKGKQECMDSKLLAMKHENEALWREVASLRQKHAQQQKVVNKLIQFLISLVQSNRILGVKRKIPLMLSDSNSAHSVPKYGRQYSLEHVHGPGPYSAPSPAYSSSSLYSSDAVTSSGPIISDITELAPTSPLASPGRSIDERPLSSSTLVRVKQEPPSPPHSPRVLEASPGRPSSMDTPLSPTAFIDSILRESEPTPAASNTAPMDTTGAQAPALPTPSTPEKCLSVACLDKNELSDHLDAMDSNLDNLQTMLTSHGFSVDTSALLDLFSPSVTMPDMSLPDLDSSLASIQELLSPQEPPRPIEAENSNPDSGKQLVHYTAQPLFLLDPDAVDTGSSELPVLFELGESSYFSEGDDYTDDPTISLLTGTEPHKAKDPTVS

[3] = target: 5-hydroxytryptamine receptor 5A (Homo sapiens, UniProt P47898); experiment: Counterscreen for agonists of OPRM1-OPRD1 heterodimerization: luminescence-based cell-based high throughput dose response assay to identify agonists of 5-hydroxytryptamine (serotonin) 5A receptor (HTR5A). [Related pubchem assays (depositor defined):AID504326, AID504355, AID504692, AID504904, AID504905]; format: functional
Mu-type opioid receptor = Mu-type opioid receptor (Homo sapiens, UniProt P35372); experiment: (§1) Counterscreen for agonists of heterodimerization of the mu 1 (OPRM1) and delta 1 (OPRD1) opioid receptors: Luminescence-based cell-based high throughput dose response assay to identify agonists of OPRM1 homodimerization.; format: functional
H4 = experiment: Luminescence Cell-Based Dose Response HTS to Identify Activators of 5'UTR Stem-Loop Driven Prion Protein mRNA Translation in H4 Neuroglioblastoma Cells. [Related pubchem assays: 1829 (Project Summary), 1814 (Primary HTS)]; format: functional; conditions: Homo sapiens
[4] = target: Delta-type opioid receptor (Homo sapiens, UniProt P41143); experiment: as §1, with “of OPRD1” for “of OPRM1”, “homodimerization. [Related pubchem assays (depositor defined):AID504326, AID504355, AID504692, AID504904, AID504905]” for “homodimerization.”; format: functional
HeLa = experiment: HeLa cell cytotoxicity, dose response, cytotoxicity control for MITF activator project, CellTiter-Glo luminescence, cherry-pick samples (AID 540259); format: functional, cell-based; conditions: Homo sapiens

Chain of Glucose-6-phosphate 1-dehydrogenase (P11413 whole entry): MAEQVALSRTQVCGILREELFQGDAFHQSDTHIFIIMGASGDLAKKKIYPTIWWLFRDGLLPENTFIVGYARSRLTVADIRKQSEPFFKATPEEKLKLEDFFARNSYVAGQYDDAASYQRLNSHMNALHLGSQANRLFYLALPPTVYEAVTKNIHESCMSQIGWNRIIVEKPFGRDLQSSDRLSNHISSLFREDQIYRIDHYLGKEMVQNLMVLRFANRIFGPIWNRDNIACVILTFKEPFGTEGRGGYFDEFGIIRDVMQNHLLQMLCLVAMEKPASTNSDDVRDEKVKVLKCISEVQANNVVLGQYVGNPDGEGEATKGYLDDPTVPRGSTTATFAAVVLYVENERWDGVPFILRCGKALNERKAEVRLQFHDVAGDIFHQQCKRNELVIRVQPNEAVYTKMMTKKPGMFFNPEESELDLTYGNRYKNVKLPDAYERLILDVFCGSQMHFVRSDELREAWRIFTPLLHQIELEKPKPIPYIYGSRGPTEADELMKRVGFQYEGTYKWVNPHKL
Chain of 5-hydroxytryptamine receptor 5A (P47898 whole entry): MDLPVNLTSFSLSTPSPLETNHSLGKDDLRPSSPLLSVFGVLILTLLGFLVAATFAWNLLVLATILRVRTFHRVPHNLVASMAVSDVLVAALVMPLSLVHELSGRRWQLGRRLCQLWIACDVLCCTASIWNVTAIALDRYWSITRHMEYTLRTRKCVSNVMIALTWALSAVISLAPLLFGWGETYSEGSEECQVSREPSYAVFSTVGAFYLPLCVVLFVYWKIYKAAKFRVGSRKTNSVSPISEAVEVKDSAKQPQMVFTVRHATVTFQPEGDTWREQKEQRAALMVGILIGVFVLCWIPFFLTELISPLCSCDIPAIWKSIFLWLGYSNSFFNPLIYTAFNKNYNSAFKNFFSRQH
Chain of Mu-type opioid receptor (P35372 whole entry): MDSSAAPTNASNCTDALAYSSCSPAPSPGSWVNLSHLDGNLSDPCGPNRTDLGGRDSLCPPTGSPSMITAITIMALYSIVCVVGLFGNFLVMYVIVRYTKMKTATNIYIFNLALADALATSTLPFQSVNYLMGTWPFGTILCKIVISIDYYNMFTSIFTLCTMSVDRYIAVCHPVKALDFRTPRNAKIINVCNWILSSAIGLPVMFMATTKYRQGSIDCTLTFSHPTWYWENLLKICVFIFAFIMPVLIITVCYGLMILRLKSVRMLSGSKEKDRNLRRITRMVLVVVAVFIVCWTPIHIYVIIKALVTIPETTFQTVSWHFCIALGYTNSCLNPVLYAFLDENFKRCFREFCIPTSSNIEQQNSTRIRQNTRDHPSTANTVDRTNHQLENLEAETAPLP
Chain of Delta-type opioid receptor (P41143 whole entry): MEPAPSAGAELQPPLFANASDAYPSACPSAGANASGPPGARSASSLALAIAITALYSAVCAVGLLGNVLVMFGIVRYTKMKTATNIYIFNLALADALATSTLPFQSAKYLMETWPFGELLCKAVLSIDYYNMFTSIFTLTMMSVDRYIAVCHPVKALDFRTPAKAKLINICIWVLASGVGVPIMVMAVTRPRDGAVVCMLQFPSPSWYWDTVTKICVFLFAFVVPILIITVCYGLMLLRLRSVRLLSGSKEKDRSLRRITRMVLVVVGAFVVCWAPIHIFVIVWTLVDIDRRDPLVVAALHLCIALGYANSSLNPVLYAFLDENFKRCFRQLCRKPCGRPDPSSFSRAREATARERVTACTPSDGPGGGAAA

`O=C(COC(=O)c1cnccn1)c1ccc([N+](=O)[O-])cc1` was tested. Which IC50 [1] did it give?
The IC50 was > 80 µM (inactive).

What does the source list for `Cc1cc(/C=C2/C(=O)NN(c3ccccc3)C2=O)c(C)n1-c1ccc(O)cc1`?
EC50 [2]: 4.81 µM (active); EC50 [3]: > 92.5 µM (inactive); EC50 (Mu-type opioid receptor): > 92.5 µM (inactive); EC50 (H4): < 100 nM (active); EC50 [4]: 9.3 µM (active)

For `Cc1nn2cc(-c3ccc(Cl)cc3)cnc2c1Cl`, which AC50 (HeLa) is on record?
The AC50 was 108 µM (active).

How did the IC50 [1] turn out when `COc1ccc(CN(C)S(=O)(=O)c2nnc(NC(=O)c3cccc(C)c3)s2)cc1OC` was run?
The IC50 was 61.2 µM (inactive).
